The target of test [1] is human Adenosine A3 receptor (Homo sapiens (Human), UniProt P0DMS8). Kind of test: Adenosine receptor TR-FRET binding assay (A3). The conditions noted are these: inhibition of binding of 100 nM CA200645, CHO cell membranes. Put shortly: (§1)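 CHO cell membranes carrying terbium-tagged human A1, A2a, A2b or A3 receptors were incubated 2 h at room temperature with compound and CA200645 tracer (A2b 30 nM; others 100 nM). Specific binding from time-resolved FRET ratios, minus 10 μM XAC background; IC50 converted to Ki (Cheng–Prusoff).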
human Adenosine A3 receptor, sequence (P0DMS8 whole entry): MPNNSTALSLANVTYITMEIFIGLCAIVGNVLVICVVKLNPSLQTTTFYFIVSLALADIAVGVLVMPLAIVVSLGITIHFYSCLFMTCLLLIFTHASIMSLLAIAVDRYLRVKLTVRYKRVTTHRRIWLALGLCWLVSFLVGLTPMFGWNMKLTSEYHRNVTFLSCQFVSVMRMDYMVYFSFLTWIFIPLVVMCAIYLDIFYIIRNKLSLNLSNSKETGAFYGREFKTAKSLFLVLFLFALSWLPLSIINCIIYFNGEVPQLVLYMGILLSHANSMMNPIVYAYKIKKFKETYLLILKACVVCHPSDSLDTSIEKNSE
(TR-FRET usually uses a lanthanide donor and a delayed reading to cut background.)

The test system of test [2] is immature monocyte-derived dendritic cells (MoDC). Kind of test: MoDC pCREB assay. The test is classed as cell-based, human. The conditions noted are these: Homo sapiens, Dendritic cell; pCREB in immature MoDC, 1 μM NECA, rolipram. The method, then: Monocytes are isolated from human whole blood using CD14 microbeads (Miltenyi Biotec 130-050-201) and differentiated to immature monocyte-derived dendritic cells (MoDC) by culture for 5 days in Mo-DC Differentiation Medium (Miltenyi Biotec 130-094-812). MoDCs are seeded into fresh medium into U bottomed 96 well culture plates and pre-incubated at 37° C. with serial dilutions of A2A/B antagonists for 15 min. At the same time the cells are co-incubated with the phosphodiesterase inhibitor rolipram (final concentration of 20 µM) to amplify the subsequent pCREB response. Adenosine receptor agonist NECA is then added at 1 μM final concentration, leading to an increase in CREB phosphorylation. Following a 45 min incubation at 37° C., the cells are fixed, permeabilized and stained with directly conjugated fluorescent antibodies to phospho-CREB (Alexa Fluor 488), CD209 (PerCP-Cy5.5) and CD86 (APC). Samples are analysed by FACS to measure fluorescence in corresponding channels, and also forward and Side scatter. The population of CD209+/CD86− low cells corresponding to immature dendritic cells is gated for analysis of pCREB levels.
Approximately 5% of the analysed cells are positive for detection of pCREB in the absence of agonist stimulation, representing the background signalling of all pathways upstream of CREB. Following NECA stimulation this is increased to ˜80% pCREB+ve, and this increase is essentially fully reversible by A2B or dual A2A/B antagonists.
IC50 is represented as the point of inflection of a sigmoidal curve

Test [3] deals with human Adenosine A1 receptor (Homo sapiens (Human), UniProt P30542). Kind of test: Adenosine receptor TR-FRET binding assay (A1). The conditions noted are these: inhibition of binding of 100 nM CA200645, CHO cell membranes. Put shortly:
as §1

The test system of a further test is human PBMCs. Kind of test: CD3/CD28 stimulated IL-2 release NECA reversal assay in human PBMCs. In kind it is cell-based. The conditions noted are these: PBMC, 1 uM NECA, 24 hours, IL-2 in culture supernatant. Put shortly: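 PBMCs from citrated healthy-donor blood plated at 50,000 cells/well on 1 ug/ml CD3 antibody with 1 ug/ml CD28 antibody, 1 uM NECA and 0.003-10 μM antagonist (final), 24 h at 37° C. Supernatant IL-2 measured by MSD immunoassay; % inhibition set against no-NECA control wells as 100%.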

The test system of test [4] is CD8+T cells in human whole blood. Put plainly: Measurement of pCREB in CD8+T cells in human whole blood. To be noted: 3 μM NECA, rolipram. The test is classed as cell-based. Put shortly:
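Heparinised human whole blood pre-incubated 20 min at 37 °C with serially diluted A2a antagonists plus rolipram, then stimulated 60 min with 3 μM NECA (final). After fixation and red-cell lysis, white cells were permeabilized and stained for phospho-CREB and CD8; pCREB in CD8+ T cells measured by flow cytometry.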

Test [5] concerns the target human Adenosine A2b receptor (Homo sapiens (Human), UniProt P29275). Put plainly: Adenosine receptor TR-FRET binding assay (A2b). To be noted: TR-FRET, inhibition of binding of 30 nM CA200645, CHO cell membranes. Put shortly:
as §1

In test [6] the target is human Adenosine A2a receptor (Homo sapiens (Human), UniProt P29274). Kind of test: Adenosine receptor TR-FRET binding assay (A2a). The conditions noted are these: inhibition of binding of 100 nM CA200645, CHO cell membranes. Put shortly:
as §1

human Adenosine A2a receptor, sequence (P29274 whole entry): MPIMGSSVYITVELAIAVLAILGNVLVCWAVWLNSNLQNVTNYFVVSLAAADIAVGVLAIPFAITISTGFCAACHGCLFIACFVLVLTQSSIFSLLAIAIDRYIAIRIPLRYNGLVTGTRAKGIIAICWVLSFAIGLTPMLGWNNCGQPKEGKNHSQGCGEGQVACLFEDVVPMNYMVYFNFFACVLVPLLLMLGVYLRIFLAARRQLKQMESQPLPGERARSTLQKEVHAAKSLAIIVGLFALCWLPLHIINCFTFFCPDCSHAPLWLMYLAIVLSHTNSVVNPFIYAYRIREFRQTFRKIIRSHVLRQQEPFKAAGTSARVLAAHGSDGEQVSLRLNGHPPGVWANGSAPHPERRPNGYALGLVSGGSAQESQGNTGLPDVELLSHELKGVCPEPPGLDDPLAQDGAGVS
human Adenosine A1 receptor, sequence (P30542 whole entry): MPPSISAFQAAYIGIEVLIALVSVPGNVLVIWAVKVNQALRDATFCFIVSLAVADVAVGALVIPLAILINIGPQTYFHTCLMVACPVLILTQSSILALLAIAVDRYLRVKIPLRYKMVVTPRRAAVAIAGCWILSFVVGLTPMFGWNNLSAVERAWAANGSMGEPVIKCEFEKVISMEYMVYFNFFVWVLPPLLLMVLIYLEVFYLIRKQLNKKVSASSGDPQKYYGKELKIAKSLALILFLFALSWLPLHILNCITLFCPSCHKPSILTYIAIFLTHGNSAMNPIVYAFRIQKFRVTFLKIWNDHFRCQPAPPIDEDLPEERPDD
human Adenosine A2b receptor, sequence (P29275 whole entry): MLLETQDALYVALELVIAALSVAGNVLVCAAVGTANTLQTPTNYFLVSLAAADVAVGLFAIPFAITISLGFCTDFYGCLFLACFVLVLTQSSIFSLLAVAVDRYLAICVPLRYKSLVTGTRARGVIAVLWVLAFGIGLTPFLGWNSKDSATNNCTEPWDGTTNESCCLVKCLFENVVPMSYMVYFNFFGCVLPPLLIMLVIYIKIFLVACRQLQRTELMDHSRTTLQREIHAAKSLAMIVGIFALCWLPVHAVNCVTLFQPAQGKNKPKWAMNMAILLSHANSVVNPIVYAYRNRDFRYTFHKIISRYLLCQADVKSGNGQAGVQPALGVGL

Regarding `Cc1cc(-c2sc(NC(=O)N3CCC(C#N)(CO)CC3)nc2-c2cccc(C#N)c2)cc(C)n1` [Example 4.23, 4-Cyano-N-[4-(3-cyanophenyl)-5-(2,6-dimethyl-4-pyridyl)thiazol-2-yl]-4-(hydroxymethyl)piperidine-1-carboxamide], the Ki amounted to 267 nM in test [1], 54 nM in test [3], 0.7 nM in test [5] and 0.2 nM in test [6]. For the same molecule, the IC50 in test [2] amounted to 20 nM; with human PBMCs, 0.6 nM; in test [4] it was 30 nM.

As for `Cc1cc(-c2sc(NC(=O)N3CC[S+]([O-])CC3)nc2-c2cccc(C#N)c2)cc(C)n1` [Example 4.24, N-[4-(3-Cyanophenyl)-5-(2,6-dimethyl-4-pyridyl)thiazol-2-yl]-1-oxo-1,4-thiazinane-4-carboxamide], the Ki in test [1] was 383 nM; in test [3], 15 nM; in test [5], 2.4 nM; in test [6], 0.18 nM. The IC50 in test [2] turned out to be 79 nM; with human PBMCs, 2.8 nM; in test [4], 80 nM.

For the molecule `Cc1cc(-c2sc(NC(=O)N3CCC4(CC3)C(=O)N(C)C(=O)N4C)nc2-c2cccc(C#N)c2)cc(C)n1` [Example 4.28, N-[4-(3-Cyanophenyl)-5-(2,6-dimethyl-4-pyridyl)thiazol-2-yl]-1,3-dimethyl-2,4-dioxo-1,3,8-triazaspiro[4.5]decane-8-carboxamide], the Ki in test [1] was 77 nM; in test [3], 135 nM; in test [5], 2.4 nM; in test [6], 0.48 nM. In addition, the IC50 in test [2] came to 10 nM; in the test on human PBMCs, 4.7 nM; in test [4], 670 nM.

For `Cc1cc(-c2sc(NC(=O)N3CCC(C#N)(C#N)CC3)nc2-c2cccc(C#N)c2)cc(C)n1` [Example 4.32, 4,4-Dicyano-N-[4-(3-cyanophenyl)-5-(2,6-dimethyl-4-pyridyl)thiazol-2-yl]piperidine-1-carboxamide], the Ki in test [1] was 457 nM; in test [3] it was 26 nM; in test [5] it was 1.1 nM; in test [6] it was 0.15 nM. Also, the IC50 came out at 14 nM in test [2], 0.7 nM with human PBMCs and 60 nM in test [4].

As for `Cc1cc(-c2sc(NC(=O)N3CCC(C)(C#N)CC3)nc2-c2cccc(C#N)c2)cc(C)n1` [Example 6, 4-Cyano-N-[4-(3-cyanophenyl)-5-(2,6-dimethyl-4-pyridyl)thiazol-2-yl]-4-methyl-piperidine-1-carboxamide], the Ki in test [1] was 283 nM; in test [3], 37 nM; in test [5] it was 1.1 nM; in test [6], 0.12 nM. Moreover, the IC50 in test [2] was found to be 9 nM; with human PBMCs, 0.6 nM; in test [4] it was 70 nM.

Take `Cc1cc(-c2sc(NC(=O)N3CCC4(CC3)NC(=O)N(C)C4=O)nc2-c2cccc(C#N)c2)cc(C)n1` [Example 6.6, N-[4-(3-Cyanophenyl)-5-(2,6-dimethyl-4-pyridyl)thiazol-2-yl]-3-methyl-2,4-dioxo-1,3,8-triazaspiro[4.5]decane-8-carboxamide]: the Ki is 233 nM in test [1], 81 nM in test [3], 1.3 nM in test [5] and 1.44 nM in test [6]. In addition, the half-maximal inhibitory concentration (IC50) in test [2] was found to be 24 nM; in the test with human PBMCs, 8.2 nM; in test [4], 600 nM.

`Cc1cc(-c2sc(NC(=O)N3CC(C)(C#N)C3)nc2-c2cccc(C#N)c2)cc(C)n1` [Example 6.7, 3-Cyano-N-[4-(3-cyanophenyl)-5-(2,6-dimethyl-4-pyridyl)thiazol-2-yl]-3-methyl-azetidine-1-carboxamide]: the Ki was 281 nM in test [1], 14 nM in test [3], 0.7 nM in test [5] and 0.11 nM in test [6]. In addition, the IC50 in test [2] came out at 7 nM; in the test with human PBMCs, 0.8 nM; in test [4], 20 nM.

`Cc1cc(-c2sc(NC(=O)N3CC[C@@H](C(C)(C)O)C3)nc2-c2cccc(C#N)c2)cc(C)n1` [Example 6.36, (3R)-N-[4-(3-Cyanophenyl)-5-(2,6-dimethyl-4-pyridyl)thiazol-2-yl]-3-(1-hydroxy-1-methyl-ethyl)pyrrolidine-1-carboxamide]: the Ki in test [1] was 377 nM; in test [3] it was 133 nM; in test [5], 4.2 nM; in test [6], 0.87 nM. Further, the concentration for half-maximal inhibition (IC50) was 16 nM in test [2], 4.2 nM in the test with human PBMCs and 90 nM in test [4].

`Cc1cc(-c2sc(NC(=O)N3CC4(C3)CS(=O)(=O)C4)nc2-c2cccc(C#N)c2)cc(C)n1` [Example 6.46, N-[4-(3-Cyanophenyl)-5-(2,6-dimethyl-4-pyridyl)thiazol-2-yl]-2,2-dioxo-2λ^∧{6}-thia-6-azaspiro[3.3]heptane-6-carboxamide]: the Ki in test [1] was found to be 235 nM; in test [3], 113 nM; in test [5], 1.9 nM; in test [6], 2.06 nM. In addition, the results for the IC50 (in test [2]; in the test with human PBMCs; in test [4]) were 38 nM, 15.1 nM and 360 nM, respectively.

As to `Cc1cc(-c2sc(NC(=O)N3CC4(CCOC4)C3)nc2-c2cccc(C#N)c2)cc(C)n1` [Example 6.53, N-[4-(3-Cyanophenyl)-5-(2,6-dimethyl-4-pyridyl)thiazol-2-yl]-6-oxa-2-azaspiro[3.4]octane-2-carboxamide], the Ki in test [1] is 662 nM; in test [3], 110 nM; in test [5], 1.6 nM; in test [6], 0.27 nM. The IC50 in test [2] is 40 nM; with human PBMCs, 2.5 nM; in test [4] it was 130 nM.

For `Cc1cc(-c2sc(NC(=O)N3CCOC[C@H]3C)nc2-c2cccc(C#N)c2)cc(C)n1` [Example 6.74, (3R)-N-[4-(3-Cyanophenyl)-5-(2,6-dimethyl-4-pyridyl)thiazol-2-yl]-3-methyl-morpholine-4-carboxamide], the Ki in test [1] was 219 nM; in test [3], 23 nM; in test [5], 1.9 nM; in test [6] it was 0.63 nM. Moreover, the values for the IC50 (in test [2]; in the test with human PBMCs; in test [4]) were 1 nM, 5.6 nM and 240 nM, respectively.

With `Cc1cc(-c2sc(NC(=O)N3CCC4(COC4)C3)nc2-c2cccc(C#N)c2)cc(C)n1` [Example 6.81, N-[4-(3-Cyanophenyl)-5-(2,6-dimethyl-4-pyridyl)thiazol-2-yl]-2-oxa-7-azaspiro[3.4]octane-7-carboxamide], the Ki in test [1] is 292 nM; in test [3] it was 49 nM; in test [5] it was 2.3 nM; in test [6], 0.47 nM. Also, the IC50 is 19 nM in test [2], 7.6 nM with human PBMCs and 230 nM in test [4].

In the case of `Cc1cc(-c2sc(NC(=O)N3CC4(CCN(C)C4=O)C3)nc2-c2cccc(C#N)c2)cc(C)n1` [Example 6.92, N-[4-(3-Cyanophenyl)-5-(2,6-dimethyl-4-pyridyl)thiazol-2-yl]-6-methyl-5-oxo-2,6-diazaspiro[3.4]octane-2-carboxamide], the Ki in test [1] came to 98 nM; in test [3], 66 nM; in test [5] it was 2.6 nM; in test [6] it was 0.39 nM. Also, the IC50 is 11 nM in test [2], 1.2 nM in the test with human PBMCs and 30 nM in test [4].

On to `Cc1cc(-c2sc(NC(=O)N3CC4(CCO4)C3)nc2-c2cccc(C#N)c2)cc(C)n1` [Example 6.93, N-[4-(3-Cyanophenyl)-5-(2,6-dimethyl-4-pyridyl)thiazol-2-yl]-1-oxa-6-azaspiro[3.3]heptane-6-carboxamide], for which the Ki in test [1] is 161 nM; in test [3], 44 nM; in test [5] it was 1.5 nM; in test [6] it was 0.31 nM. In addition, the values for the IC50 (in test [2]; with human PBMCs; in test [4]) were 9 nM, 1.3 nM and 50 nM, respectively.

Usually Ki stands for a dissociation constant, usually derived from enzyme kinetics or from competition with a known ligand. By IC50 is commonly meant the point on the concentration scale where inhibition reaches its midpoint.

These data come from patent US20230293517A1, “ANTAGONIST COMPOUNDS” (AdoRx Therapeutics Limited, priority 2020, published 2023).
